Test results as given in patent US6410561B1, “Amide derivatives and nociceptin antagonists” (Japan Tobacco Inc., priority 1998, dated 2002).
Structures can show the parent of a compound that is named as a salt. Where two headings read alike, the source gives them in different places. Values belong to the molecule of their own block, whether it stands above or below them.

Key:
μ receptor = target: T1, μ receptor (Rattus norvegicus, UniProt P33535); assay: μ receptor binding assay ([3H]DAMGO); settings: for Ki: calculated from IC50 and Kd of [3H]DAMGO; for IC50: rat cerebrum membrane, [3H]DAMGO 1 nM
T1 construct: Rat cerebrum membrane standard sample; from tissue; host or cells: rat cerebrum membranes
Procedure: Rat cerebrum membrane standard sample (final concentration 0.755 mg·protein/ml), [^3H]DAMGO (Try-D-Ala-Gly-NMe-Phe-Gly-ol) [diluted with Tris buffer (50 mM Tris-HCl, 0.1 mM p-APMSF, 2 mg/ml BSA (pH=7.4)) to a final concentration of 1 nM] and test compound (diluted with Tris buffer to a final concentration of 10 nM-10 μM) were mixed, and the mixture was incubated at room temperature for 90 min. The membrane was recovered on a G/F-B filter (same as above) using a cell harvester and the reaction was stopped. After washing 3 times, the filter was dried at 42° C. for 1 hr. A scintillation solution (same as above) was added and the radioactivity (same as above) was assayed.
(§1) The nonspecific binding was the binding in the presence of 10 μM naloxone and the difference between the total binding and nonspecific binding was taken as the specific binding. IC50 was calculated from inhibition of specific binding at each concentration of the compound, and Ki value of the test compound was calculated from this value and Kd value of [^3H]DAMGO.

ORL-1 receptor = target: T2, ORL-1 receptor (Homo sapiens, UniProt P41146); assay: ORL1 receptor binding assay ([3H]nociceptin); settings: for Ki: calculated from IC50 and Kd of [3H]nociceptin; for IC50: membrane of human ORL-1 expression cells, [3H]nociceptin 0.5 nM
T2 construct: expressed in transfected cells
Procedure: ORL1 Receptor Binding Assay
A cell membrane suspension obtained from human ORL-1 expression cells was adjusted with Tris buffer [50 mM Tris, 2 mM EDTA, 0.1 mM (p-Amidinophenyl)methanesulfonyl Fluoride Hydrochloride (p-APMSF), 2 mg/ml BSA] to membrane protein amount of about 25 μg/ml (2.5 μg/well). This was mixed with [^3H]nociceptin (diluted with Tris buffer to a final concentration of 0.5 nM) and test compound (diluted with Tris buffer to a final concentration of 10 nM-10 μM), and the mixture was incubated at room temperature for 60 min. The membrane was recovered on a G/F-B filter (Packard, Unifilter 96GF/B) using a cell harvester and the reaction was stopped. After washing 3 times, the filter was dried at 42° C. for 1 hr. A scintillation solution (Packard, microscint-20) was added and the radioactivity (Packard, Top count A9912V) was assayed.
as §1, with “1” for “10”, “nociceptin” for “naloxone”, “[^3H]nociceptin.” for “[^3H]DAMGO.”

allodynia model = assay: Allodynia test (intrathecal nociceptin, tactile stimulation); format: in vivo, Mice; settings: Mus musculus, read-out: Allodynia M.E.D. (minimum effective dose)
Procedure: Mice (Crj, ICR, 4-week-old, male) were intrathecally administered with nociceptin (50 pg/5 μl) without anesthesia. For 20 min after administration and at 5 min intervals, an area from lateral region to tail of the mice was rubbed with a brush and the response of the mice was observed. The evaluation followed the criteria of 0; no change, 1; run or cry upon tactile stimulation, and 2; cry loud or dash away upon tactile stimulation. The test compound was suspended in a 0.5% MC solution and orally administered 60 min before nociceptin administration. The significant difference of the score of each administration group at 20 min after nociceptin administration from the group administered with solvent was analyzed with Mann-Whitny U-test.

[1] = mice, oral, 60 min before nociceptin 50 pg i.t., score at 20 min

T2 sequence (P41146 whole entry): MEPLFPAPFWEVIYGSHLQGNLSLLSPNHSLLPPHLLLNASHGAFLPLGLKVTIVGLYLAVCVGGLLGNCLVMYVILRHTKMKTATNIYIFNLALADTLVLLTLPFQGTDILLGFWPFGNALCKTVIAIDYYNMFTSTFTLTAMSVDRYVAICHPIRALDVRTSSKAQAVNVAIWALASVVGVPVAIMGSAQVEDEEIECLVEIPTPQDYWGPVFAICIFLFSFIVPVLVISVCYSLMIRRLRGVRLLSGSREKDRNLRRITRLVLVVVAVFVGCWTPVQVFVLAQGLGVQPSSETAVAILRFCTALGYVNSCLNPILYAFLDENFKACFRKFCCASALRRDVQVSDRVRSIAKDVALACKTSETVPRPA
T1 sequence (P33535 whole entry): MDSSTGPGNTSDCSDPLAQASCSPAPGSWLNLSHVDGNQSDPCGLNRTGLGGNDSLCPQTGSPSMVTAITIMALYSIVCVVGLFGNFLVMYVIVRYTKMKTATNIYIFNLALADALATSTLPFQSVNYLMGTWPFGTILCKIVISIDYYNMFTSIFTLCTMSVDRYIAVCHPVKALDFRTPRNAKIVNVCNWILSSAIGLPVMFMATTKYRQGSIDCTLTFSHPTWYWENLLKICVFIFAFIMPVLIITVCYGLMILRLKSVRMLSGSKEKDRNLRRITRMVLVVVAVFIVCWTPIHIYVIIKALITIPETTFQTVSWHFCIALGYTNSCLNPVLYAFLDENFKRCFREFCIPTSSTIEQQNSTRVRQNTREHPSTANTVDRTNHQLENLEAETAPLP

Structure (SMILES): Cc1cc(N)c2cc(NC(=O)c3ccccc3CN(C(=O)OC(C)(C)C)c3ccc(Cl)cc3)ccc2n1.Cl
melting point: 208 °C

Structure (SMILES): Cc1cc(N)c2cc(NC(=O)c3sccc3COc3ccc(Cl)cc3)ccc2n1.Cl
melting point: 219 °C

Structure (SMILES): CNc1cc(C)nc2ccc(NC(=O)c3ccccc3COc3ccccc3)cc12.Cl
melting point: 284 °C

Structure (SMILES): Cl.Nc1ccnc2ccc(NC(=O)c3ccccc3COc3ccc(Cl)cc3)cc12
melting point: 231 °C

Structure (SMILES): Cl.Nc1c2c(nc3ccc(NC(=O)c4ccccc4COc4ccc(Cl)cc4)cc13)CCCC2
melting point: 283 °C

Structure (SMILES): CSc1nc2ccc(NC(=O)c3ccccc3COc3ccccc3)cc2[nH]1.Cl
melting point: 191 °C

Structure (SMILES): Cl.Nc1cccc2ccc(NC(=O)c3ccccc3COc3ccccc3)cc12
melting point: 237 °C

Structure (SMILES): Cl.Nc1ccc(NC(=O)c2ccccc2COc2ccccc2)cc1
melting point: 241 °C

Structure (SMILES): Cc1cc(N)c2cc(NC(=O)c3cccc(CCc4ccccc4)c3)ccc2n1.Cl
melting point: > 300 °C

Structure (SMILES): Cc1cc(N)c2cc(NC(=O)c3ccccc3CCCCc3ccccc3)ccc2n1.Cl
melting point: 233 °C

Structure (SMILES): Cc1cc(N)c2cc(NC(=O)c3ccccc3CCCCCCc3ccccc3)ccc2n1.Cl
melting point: 213 °C

Structure (SMILES): Cc1cc(N)c2cc(NC(=O)c3ccccc3OCc3ccccc3)ccc2n1.Cl
melting point: 240 °C

Structure (SMILES): COc1cc(OC)cc(OCc2ccccc2C(=O)Nc2ccc3nc(C)cc(N)c3c2)c1.Cl [Example 10, N-(4-amino-2-methyl-6-quinolyl)-2-[(3,5-dimethoxyphenoxy)methyl]benzamide hydrochloride]
Ki (μ receptor): 324 nM
IC50 (μ receptor): 860 nM
Ki (ORL-1 receptor): 53 nM
IC50 (ORL-1 receptor): 1020 nM
minimal effective dose (allodynia model; [1]): 3 mg/kg

Structure (SMILES): Cc1cc(N)c2cc(NC(=O)c3ccccc3COc3ccccc3Cl)ccc2n1.Cl [Example 27, N-(4-amino-2-methyl-6-quinolyl)-2-[(2-chlorophenoxy)methyl]benzamide hydrochloride]
Ki (μ receptor): 414 nM
IC50 (μ receptor): 1060 nM
melting point: 165 °C
minimal effective dose (allodynia model; po): 0.3 mg/kg

Structure (SMILES): Cc1cc(N)c2cc(NC(=O)c3ccccc3COc3ccc([N+](=O)[O-])cc3)ccc2n1.Cl [Example 32, N-(4-amino-2-methyl-6-quinolyl)-2-[(4-nitrophenoxy)methyl]benzamide hydrochloride]
Ki (μ receptor): 227 nM
IC50 (μ receptor): 580 nM
melting point: 238 °C
minimal effective dose (allodynia model; po): > 0.3 mg/kg

Structure (SMILES): CCc1cc(N)c2cc(NC(=O)c3ccccc3COc3ccc(Cl)cc3Cl)ccc2n1 [Example 51]
Ki (μ receptor): 525 nM
IC50 (μ receptor): 1400 nM
Ki (ORL-1 receptor): 8 nM
IC50 (ORL-1 receptor): 170 nM

Structure (SMILES): Cc1cc(N)c2cc(NC(=O)c3ccccc3CCCCOc3ccccc3)ccc2n1.Cl [Example 63]
Ki (μ receptor): 545 nM
IC50 (μ receptor): 1420 nM
Ki (ORL-1 receptor): 54 nM
IC50 (ORL-1 receptor): 1030 nM
minimal effective dose (allodynia model; [1]): > 3 mg/kg

Structure (SMILES): Cc1cc(N)c2cc(NC(=O)c3ccccc3CCCCCCCOc3ccccc3)ccc2n1.Cl [Example 65]
Ki (ORL-1 receptor): 64 nM
IC50 (ORL-1 receptor): 1160 nM
minimal effective dose (allodynia model; [1]): > 3 mg/kg

Structure (SMILES): Cc1cc(N)c2cc(NC(=O)c3ccccc3CCCCCCOc3ccccc3)ccc2n1.Cl [Example 66]
Ki (ORL-1 receptor): 108 nM
IC50 (ORL-1 receptor): 2000 nM
melting point: 210 °C
minimal effective dose (allodynia model; [1]): > 3 mg/kg

Structure (SMILES): Cc1cc(N)c2cc(NC(=O)c3ccccc3CCc3ccccc3)ccc2n1 [Example 71]
Ki (ORL-1 receptor): 89 nM
IC50 (ORL-1 receptor): 1770 nM
minimal effective dose (allodynia model; [1]): 30 mg/kg

Structure (SMILES): Cc1cc(N)c2cc(NC(=O)c3ccccc3CN(C)c3ccc(Cl)cc3)ccc2n1 [Example 101]
melting point: 214 °C

Structure (SMILES): Cc1cc(N)c2cc(NC(=O)c3ccccc3CNc3ccc(Cl)cc3)ccc2n1 [Example 102]
melting point: 274 °C

Structure (SMILES): Cc1cc(N)c2cc(NC(=O)[C@@H]3CCCN3CCOc3ccc(Cl)cc3)ccc2n1 [Example 113]
melting point: 216 °C

Structure (SMILES): Cc1cc(N)c2cc(NC(=O)[C@@H]3CCCN3CCCOc3ccc(Cl)cc3)ccc2n1 [Example 114]
melting point: 211 °C

Structure (SMILES): Cc1cc(N)c2cc(NC(=O)[C@H]3CCCN3CCOc3ccc(Cl)cc3)ccc2n1 [Example 115]
melting point: 253 °C

Now from value to molecule, other results behind:

melting point: 219 °C
Structure (SMILES): CCc1ccc(OCc2ccccc2C(=O)Nc2ccc3nccc(N)c3c2)cc1.Cl

melting point: 201 °C
Structure (SMILES): Cc1ccc(OCc2ccccc2C(=O)Nc2ccc3nc(CO)cc(N)c3c2)cc1.Cl

melting point: 224 °C
Structure (SMILES): COc1cccc(OCc2ccccc2C(=O)Nc2ccc3nc(C)cc(N)c3c2)c1.Cl

melting point: 268 °C
Structure (SMILES): Cc1cc(N)c2cc(NC(=O)c3ccccc3COc3ccc(-c4ccccc4)cc3)ccc2n1.Cl

melting point: 256 °C
Structure (SMILES): Cc1cc(N)c2cc(NC(=O)c3ccccc3COc3ccc(C(C)C)cc3)ccc2n1.Cl

melting point: 255 °C
Structure (SMILES): Cc1cc(N)c2cc(NC(=O)c3ccccc3COc3cccc(F)c3)ccc2n1.Cl

melting point: 253 °C
Structure (SMILES): Cc1cc(N)c2cc(NC(=O)c3ccccc3COc3cccc(C(F)(F)F)c3)ccc2n1.Cl

melting point: 262 °C
Structure (SMILES): COC(=O)c1ccc(OCc2ccccc2C(=O)Nc2ccc3nc(C)cc(N)c3c2)cc1.Cl

melting point: 207 °C
Structure (SMILES): Cc1cc(N)c2cc(NC(=O)c3ccccc3COc3cccnc3)ccc2n1.Cl

melting point: 225 °C
Structure (SMILES): Cc1cc(N)c2cc(NC(=O)c3ccccc3COc3ccc(C(=O)O)cc3)ccc2n1.Cl

melting point: 195 °C
Structure (SMILES): Cc1cc(N)c2cc(NC(=O)c3ccccc3COc3cccc(C#N)c3)ccc2n1.Cl

melting point: 258 °C
Structure (SMILES): CC(=O)OCc1ccc(OCc2ccccc2C(=O)Nc2ccc3nc(C)cc(N)c3c2)cc1.Cl

melting point: 273 °C
Structure (SMILES): Cc1cc(N)c2cc(NC(=O)c3ccccc3COc3ccc(CO)cc3)ccc2n1.Cl

melting point: 270 °C
Structure (SMILES): COc1ccc(OCc2ccccc2C(=O)Nc2ccc3nc(C)cc(N)c3c2)cc1OC.Cl

melting point: 176 °C
Structure (SMILES): Cc1cc(N)c2cc(NC(=O)c3ccccc3COc3ccc4c(c3)CCCC4)ccc2n1.Cl

melting point: > 300 °C
Structure (SMILES): Cc1ccc(CCc2ccccc2C(=O)Nc2ccc3nc(C)cc(N)c3c2)cc1.Cl

melting point: 269 °C
Structure (SMILES): Cc1cc(N)c2cc(NC(=O)c3ccccc3COc3ccc4occc4c3)ccc2n1.Cl

melting point: 244 °C
Structure (SMILES): COCc1ccccc1C(=O)Nc1ccc2nc(C)cc(N)c2c1.Cl

melting point: 216 °C
Structure (SMILES): Cc1cc(N)c2cc(NC(=O)c3ccccc3CSc3ccc(Cl)cc3)ccc2n1.Cl

melting point: 221 °C
Structure (SMILES): Cc1cc(N)c2cc(NC(=O)c3ccccc3C[S+]([O-])c3ccc(Cl)cc3)ccc2n1.Cl (stereo not shown)

melting point: 233 °C
Structure (SMILES): Cc1cc(N)c2cc(NC(=O)c3ccccc3COc3ccc(N(C)C)cc3)ccc2n1 (as salt: hydrochloride)

melting point: 237 °C
Structure (SMILES): Cc1cc(N)c2cc(NC(=O)c3ccccc3COc3ccc(N)cc3)ccc2n1 (as salt: hydrochloride) [Example 23, N-(4-amino-2-methyl-6-quinolyl)-2-[(4-aminophenoxy)methyl]benzamide dihydrochloride]

Ki (μ receptor): 464 nM
IC50 (μ receptor): 1180 nM
Ki (ORL-1 receptor): 8 nM
IC50 (ORL-1 receptor): 150 nM
Structure (SMILES): Cc1cc(N)c2cc(NC(=O)c3ccccc3COc3ccc(F)cc3)ccc2n1.Cl [Example 25, N-(4-amino-2-methyl-6-quinolyl)-2-[(4-fluorophenoxy)methyl]benzamide hydrochloride]
minimal effective dose (allodynia model; [1]): > 0.3 mg/kg

Ki (μ receptor): 1020 nM
IC50 (μ receptor): 2670 nM
Ki (ORL-1 receptor): 5 nM
IC50 (ORL-1 receptor): 90 nM
Structure (SMILES): Cc1cc(N)c2cc(NC(=O)c3ccccc3COc3ccc(I)cc3)ccc2n1 [Example 38, N-(4-amino-2-methyl-6-quinolyl)-2-[(4-iodophenoxy)methyl]benzamide]
minimal effective dose (allodynia model; [1]): > 0.3 mg/kg

Ki (μ receptor): 2010 nM
IC50 (μ receptor): 5350 nM
Ki (ORL-1 receptor): 63 nM
IC50 (ORL-1 receptor): 1220 nM
Structure (SMILES): Cc1cc(N)c2cc(NC(=O)c3ccccc3CCCOc3ccccc3)ccc2n1.Cl [Example 61]
minimal effective dose (allodynia model; [1]): 3 mg/kg

Ki (μ receptor): 783 nM
IC50 (μ receptor): 2000 nM
Ki (ORL-1 receptor): 125 nM
IC50 (ORL-1 receptor): 2360 nM
Structure (SMILES): Cc1cc(N)c2cc(NC(=O)c3ccccc3CCOc3ccccc3)ccc2n1.Cl [Example 62]
minimal effective dose (allodynia model; [1]): > 3 mg/kg
